Assay results reported in ChEMBL document CHEMBL1147031, “3D-QSAR and molecular docking studies of benzaldehyde thiosemicarbazone, benzaldehyde, benzoic acid, and their derivatives as phenoloxidase inhibitors” (Bioorg Med Chem, 2007).

Test: Inhibition of pieris rapae Phenoloxidase

SMILES	IC50 [mM]
COc1cccc(/C=N/NC(N)=S)c1	0.00192
CC(C)(C)c1ccc(C=O)cc1	0.72
COc1ccc(C=O)cc1	1.9
CC(C)c1ccc(C=O)cc1	0.86
O=Cc1ccc(O)c(O)c1 [PROTOCATECHUALDEHYDE]	9
O=Cc1cccc(O)c1 [3-HYDROXYBENZALDEHYDE]	9.62
COc1ccc(C(=O)O)cc1 [p-ANISIC ACID]	5.55
O=Cc1ccccc1 [BENZALDEHYDE]	5.9
Nc1ccc(C(=O)O)cc1O	25.5
COc1cccc(C=O)c1O	5.75
O=C(O)c1ccc(O)c(O)c1 [PROTOCATECHUIC ACID]	29.5
COc1ccc(C=O)cc1O [ISOVANILLIN]	24.9
O=Cc1ccc(O)cc1O	4.88
O=Cc1ccc(O)cc1 [4-HYDROXYBENZALDEHYDE]	3.12
NC(=S)N/N=C\C=C\c1ccccc1	0.00065
O=Cc1cc(O)ccc1O	1.05
COc1cccc(C=O)c1	42.9
COc1ccc(C(=O)O)cc1O [ISOVANILLIC ACID]	47.5
O=C(O)c1ccccc1O [SALICYLIC ACID]	33.8
COc1ccccc1C=O [2-METHOXYBENZALDEHYDE]	107
Nc1cc(C(=O)O)ccc1O	3.8

Further compounds by falling IC50, results first:

IC50 [mM]	SMILES
69	COc1cc(C(=O)O)ccc1O [VANILLIC ACID]
50.5	COc1cc(C=O)ccc1O [VANILLIN]
32.5	O=C(O)c1cc(O)ccc1O [GENTISIC ACID]
30.5	O=C(O)c1ccc(O)cc1O [2,4-DIHYDROXYBENZOIC ACID]
16.2	O=C(O)c1ccc(O)cc1 [PARABEN]
16.2	O=C(O)c1cccc(O)c1 [3-HYDROXYBENZOIC ACID]
14.2	O=C(O)c1ccccc1 [BENZOIC ACID]
13.3	COc1cccc(C(=O)O)c1
4.14	O=Cc1ccccc1O
2.1	CC(C)(C)c1ccc(C(=O)O)cc1
2	COc1ccc(C=O)c(O)c1
1.92	CC(C)c1ccc(C(=O)O)cc1
1.75	CCCc1ccc(C(=O)O)cc1
0.0022	NC(=S)N/N=C/c1ccccc1O
0.00084	NC(=S)N/N=C/c1ccccc1 [PHENYLTHIOSEMICARBAZONE]
0.0006	COc1ccc(/C=N/NC(N)=S)cc1
